{"source": "paper PMC10258805", "about": "“Nonpeptidic Oxazole-Based Prolyl Oligopeptidase Ligands with Disease-Modifying Effects on α-Synuclein Mouse Models of Parkinson’s Disease” (Journal of Medicinal Chemistry, 2023)", "key": {"[1]": {"test_system": "oligomeric αSyn in AAV-αSyn-injected mice", "experiment": "Oligomer-specific αSyn immunoreactivity (OD) in AAV-αSyn PD mouse model", "conditions": "10 mg/kg/day minipump, 4 weeks"}, "[2]": {"test_system": "pPP2Ac and PP2Ac in mouse brain", "experiment": "PP2A markers in mouse brain (Western blot)", "format": "in vivo", "conditions": "10 mg/kg i.p., 45 min after injection"}, "human FAP": {"target": "T1, human FAP (Homo sapiens, UniProt Q12884)", "T1 construct": "the human secretion signal was replaced with the HoneyBee melittin secretion signal; HoneyBee melittin secretion signal (N); His tag from the C-terminal BaculoDirect vector (inferred from Ni-chelating purification; the vector also adds V5, own knowledge) (C); made in house; host or cells: Sf9 insect cells", "T1 sequence (Q12884 26-760 limits assumed)": "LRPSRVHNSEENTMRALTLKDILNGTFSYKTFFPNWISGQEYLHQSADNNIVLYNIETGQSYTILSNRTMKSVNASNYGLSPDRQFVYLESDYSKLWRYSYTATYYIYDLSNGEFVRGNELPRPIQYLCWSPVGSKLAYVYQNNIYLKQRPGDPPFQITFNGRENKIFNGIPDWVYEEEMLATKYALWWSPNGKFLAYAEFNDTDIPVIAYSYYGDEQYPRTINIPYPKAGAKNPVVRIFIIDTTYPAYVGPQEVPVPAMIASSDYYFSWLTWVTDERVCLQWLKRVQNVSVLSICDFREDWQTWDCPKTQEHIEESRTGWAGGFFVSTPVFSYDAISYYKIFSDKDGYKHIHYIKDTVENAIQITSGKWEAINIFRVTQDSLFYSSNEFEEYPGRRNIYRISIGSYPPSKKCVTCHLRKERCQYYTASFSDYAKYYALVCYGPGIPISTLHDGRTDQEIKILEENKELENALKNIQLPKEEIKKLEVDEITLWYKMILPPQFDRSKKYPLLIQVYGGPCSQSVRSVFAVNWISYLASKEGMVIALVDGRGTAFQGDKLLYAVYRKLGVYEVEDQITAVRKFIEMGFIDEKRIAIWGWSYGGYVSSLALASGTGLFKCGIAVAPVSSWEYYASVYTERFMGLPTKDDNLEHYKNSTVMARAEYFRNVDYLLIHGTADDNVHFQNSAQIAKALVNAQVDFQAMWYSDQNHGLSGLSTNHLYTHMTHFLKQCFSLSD", "experiment": "Close-relative enzyme specificity assay, FAP", "format": "biochemical", "conditions": "1 or 10 μM", "text": "FAP: A gateway-entry clone for human FAP was purchased from Dharmacon (Accession number DQ891423), and the human secretion signal was replaced with the HoneyBee melittin secretion signal. For transfection and expression of FAP in Sf9 insect cells, the C-terminal BaculoDirect kit from LifeTechnologies was used. The enzyme was purified from the supernatant of the insect cells using immobilized Ni-chelating chromatography (GE Healthcare, Diegem, Belgium), followed by anion-exchange chromatography using a 1 mL HiTrap Q and size exclusion chromatography using the Superdex 200 column (GE Healthcare, Diegem, Belgium).\nMeasurements were done on the Infinite 200 as above."}}, "note": "Entries after “also recorded” stand apart in the source; their conditions may differ."}
{"smiles": "Cc1nc(CCCc2ccccc2)oc1N1CCC[C@H]1C#N", "note": "[HUP-55, (S)-1-(4-Methyl-2-(3-phenylpropyl)oxazol-5-yl)pyrrolidine-2-carbonitrile]", "values": [{"measurement": "OD of oligomeric αSyn in the SNpc (in words)", "setting": "[1]; vs vehicle-treated group", "result": "did not significantly reduce"}, {"measurement": "OD of oligomer-specific αSyn in the STR (in words)", "setting": "[1]; vs vehicle-treated mice", "result": "decreased the OD of oligomer-specific αSyn"}, {"measurement": "inactive pPP2Ac levels in mouse brain (in words)", "setting": "[2]", "result": "decreased inactive pPP2Ac levels, but this was not significant"}, {"measurement": "levels of PP2Ac in mouse brain (in words)", "setting": "[2]", "result": "significantly increased the levels of PP2Ac"}, {"measurement": "inhibition of FAP", "setting": "human FAP", "result": "no inhibition; also recorded: does not inhibit"}]}
